Reference: ChEMBL document CHEMBL5385856, “Novel 1,4,5,6-tetrahydrocyclopenta[d]imidazole-5-carboxamide-based JNK3 inhibitors: Design, synthesis, molecular docking, and therapeutic potential in neurodegenerative diseases” (Eur J Med Chem, 2023)
Calls of active or inactive are those of the source. The rule behind the calls is not given here.

Biological target: Glycogen synthase kinase-3 beta (Homo sapiens, UniProt P49841)
Assay: Inhibition of GSK3beta (unknown origin) incubated for 20 mins in presence of 33P-ATP
Settings: not given

Sequence of Glycogen synthase kinase-3 beta (P49841 whole entry): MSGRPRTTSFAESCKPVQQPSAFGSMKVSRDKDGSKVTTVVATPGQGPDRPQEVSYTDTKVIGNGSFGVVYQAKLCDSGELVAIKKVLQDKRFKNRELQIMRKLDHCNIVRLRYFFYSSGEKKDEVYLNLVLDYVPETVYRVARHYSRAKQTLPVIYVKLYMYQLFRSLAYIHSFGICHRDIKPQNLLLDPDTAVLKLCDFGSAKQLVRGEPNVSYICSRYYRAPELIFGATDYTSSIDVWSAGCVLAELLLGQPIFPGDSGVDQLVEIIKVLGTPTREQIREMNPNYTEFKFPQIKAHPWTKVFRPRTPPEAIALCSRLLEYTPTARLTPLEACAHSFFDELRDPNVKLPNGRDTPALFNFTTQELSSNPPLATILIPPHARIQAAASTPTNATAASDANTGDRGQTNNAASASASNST

Row | SMILES | IC50
1 | CCOC(=O)C1Cc2nc(-c3ccc4ccccc4c3)n(-c3ccnc(N[C@H]4CCCN(C(=O)C5CC5)C4)n3)c2C1 (stereo partly specified) | 2250 nM
2 | NC(=O)C1Cc2nc(-c3ccc(Cl)c(Cl)c3)n(-c3ccnc(N[C@@H]4CCCN(C(=O)C5CC5)C4)n3)c2C1 (stereo partly specified) | 470 nM
3 | CNC(=O)C1Cc2nc(-c3ccc(Cl)c(Cl)c3)n(-c3ccnc(N[C@H]4CCCN(C(=O)C5CC5)C4)n3)c2C1 (stereo partly specified) | > 10000 nM
4 | CCOC(=O)C1Cc2nc(-c3ccc4ccccc4c3)n(-c3ccnc(N[C@@H]4CCCN(C(=O)C5CC5)C4)n3)c2C1 (stereo partly specified) | 1250 nM
5 | CNC(=O)C1Cc2nc(-c3ccc4ccccc4c3)n(-c3ccnc(N[C@@H]4CCCN(C(=O)C5CC5)C4)n3)c2C1 (stereo partly specified) | 1660 nM
6 | CNC(=O)C1Cc2nc(-c3ccc4ccccc4c3)n(-c3ccnc(N[C@H]4CCCN(C(=O)C5CC5)C4)n3)c2C1 (stereo partly specified) | 1800 nM

Biological target: T1, Mitogen-activated protein kinase 14 (Homo sapiens, UniProt Q16539)
T1 sequence (Q16539 whole entry): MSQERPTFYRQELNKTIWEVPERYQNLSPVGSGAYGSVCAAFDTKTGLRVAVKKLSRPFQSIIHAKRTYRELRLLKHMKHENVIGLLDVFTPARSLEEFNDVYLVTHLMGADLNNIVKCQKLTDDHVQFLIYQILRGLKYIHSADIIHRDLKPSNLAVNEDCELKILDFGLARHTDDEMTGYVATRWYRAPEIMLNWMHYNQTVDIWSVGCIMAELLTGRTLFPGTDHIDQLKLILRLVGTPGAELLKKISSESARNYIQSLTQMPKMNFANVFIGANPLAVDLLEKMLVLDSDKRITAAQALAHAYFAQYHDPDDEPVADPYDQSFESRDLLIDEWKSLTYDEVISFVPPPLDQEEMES
Assay: Inhibition of p38alpha (unknown origin) incubated for 20 mins in presence of 33P-ATP
Settings: not given

Row | SMILES | IC50
7 | CCOC(=O)C1Cc2nc(-c3ccc4ccccc4c3)n(-c3ccnc(N[C@H]4CCCN(C(=O)C5CC5)C4)n3)c2C1 (stereo partly specified) | 291 nM
8 | NC(=O)C1Cc2nc(-c3ccc(Cl)c(Cl)c3)n(-c3ccnc(N[C@@H]4CCCN(C(=O)C5CC5)C4)n3)c2C1 (stereo partly specified) | 70.6 nM
9 | CNC(=O)C1Cc2nc(-c3ccc(Cl)c(Cl)c3)n(-c3ccnc(N[C@H]4CCCN(C(=O)C5CC5)C4)n3)c2C1 (stereo partly specified) | 532 nM
10 | CCOC(=O)C1Cc2nc(-c3ccc4ccccc4c3)n(-c3ccnc(N[C@@H]4CCCN(C(=O)C5CC5)C4)n3)c2C1 (stereo partly specified) | 84.7 nM
11 | CNC(=O)C1Cc2nc(-c3ccc4ccccc4c3)n(-c3ccnc(N[C@@H]4CCCN(C(=O)C5CC5)C4)n3)c2C1 (stereo partly specified) | 37.5 nM
12 | CNC(=O)C1Cc2nc(-c3ccc4ccccc4c3)n(-c3ccnc(N[C@H]4CCCN(C(=O)C5CC5)C4)n3)c2C1 (stereo partly specified) | 751 nM

Test system: not listed separately
Assay: Selectivity ratio of IC50 for inhibition of p38alpha (unknown origin) to IC50 for inhibition of JNK3 (unknown origin)
Settings: not given

Row | SMILES | Ratio IC50
13 | CNC(=O)C1Cc2nc(-c3ccc4ccccc4c3)n(-c3ccnc(N[C@H]4CCCN(C(=O)C5CC5)C4)n3)c2C1 (stereo partly specified) | > 100

Biological target: Mitogen-activated protein kinase 10 (Rattus norvegicus) (UniProt P49187)
Sequence (P49187 whole entry): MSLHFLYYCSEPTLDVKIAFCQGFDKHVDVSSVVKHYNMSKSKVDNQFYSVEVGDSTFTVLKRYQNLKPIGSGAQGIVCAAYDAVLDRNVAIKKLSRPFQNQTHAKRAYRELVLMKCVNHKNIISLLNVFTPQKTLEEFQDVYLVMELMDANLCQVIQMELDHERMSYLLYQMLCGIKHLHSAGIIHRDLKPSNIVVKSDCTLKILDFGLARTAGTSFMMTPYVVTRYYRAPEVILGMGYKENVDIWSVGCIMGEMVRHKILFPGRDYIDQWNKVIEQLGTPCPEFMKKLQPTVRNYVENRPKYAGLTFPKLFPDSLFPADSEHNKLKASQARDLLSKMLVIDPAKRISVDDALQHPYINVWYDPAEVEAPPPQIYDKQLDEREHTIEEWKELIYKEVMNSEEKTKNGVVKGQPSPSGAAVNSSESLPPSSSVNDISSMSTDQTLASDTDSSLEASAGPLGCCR
Assay: Inhibition of JNK3 in primary rat cortex neuron cells assessed as reduction in Abeta1-42 induced APP phosphorylation by Western blotting analysis
Assay type: cell-based
Settings: Primary cortical neuron

Row | SMILES | inhibition
14 | CCOC(=O)C1Cc2nc(-c3ccc4ccccc4c3)n(-c3ccnc(N[C@H]4CCCN(C(=O)C5CC5)C4)n3)c2C1 (stereo partly specified) | Active

Biological target: T2, Mitogen-activated protein kinase 9 (Homo sapiens, UniProt P45984)
Assay: Inhibition of JNK2 (unknown origin) at 1 uM relative to control
Settings: not given
Target sequence in this assay (P45984 whole entry, looked up): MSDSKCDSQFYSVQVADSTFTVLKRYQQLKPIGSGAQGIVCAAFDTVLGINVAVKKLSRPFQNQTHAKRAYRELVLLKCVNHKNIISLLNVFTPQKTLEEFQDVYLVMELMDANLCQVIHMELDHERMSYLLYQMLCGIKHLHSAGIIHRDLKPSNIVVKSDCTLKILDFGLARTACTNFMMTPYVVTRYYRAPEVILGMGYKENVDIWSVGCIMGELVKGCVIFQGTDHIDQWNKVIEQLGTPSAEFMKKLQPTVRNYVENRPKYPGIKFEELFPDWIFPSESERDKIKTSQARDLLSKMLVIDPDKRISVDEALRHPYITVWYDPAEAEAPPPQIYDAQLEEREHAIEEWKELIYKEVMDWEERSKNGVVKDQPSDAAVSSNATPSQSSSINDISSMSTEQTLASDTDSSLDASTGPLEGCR

Row | SMILES | inhibition
15 | NC(=O)C1Cc2nc(-c3ccc(Cl)c(Cl)c3)n(-c3ccnc(N[C@@H]4CCCN(C(=O)C5CC5)C4)n3)c2C1 (stereo partly specified) | 80%
16 | CNC(=O)C1Cc2nc(-c3ccc4ccccc4c3)n(-c3ccnc(N[C@H]4CCCN(C(=O)C5CC5)C4)n3)c2C1 (stereo partly specified) | 80%

Test system: not listed separately
Assay: Selectivity ratio of IC50 for inhibition of GSK3beta (unknown origin) to IC50 for inhibition of JNK3 (unknown origin)
Settings: not given

Row | SMILES | Ratio IC50
17 | CNC(=O)C1Cc2nc(-c3ccc4ccccc4c3)n(-c3ccnc(N[C@H]4CCCN(C(=O)C5CC5)C4)n3)c2C1 (stereo partly specified) | > 100

Biological target: Mitogen-activated protein kinase 10 (Rattus norvegicus) (UniProt P49187)
Assay: Inhibition of JNK3 in primary rat cortex neuron cells assessed as reduction in Abeta1-42 induced c-Jun phosphorylation by Western blotting analysis
Assay type: cell-based
Settings: Primary cortical neuron

Row | SMILES | inhibition
18 | CCOC(=O)C1Cc2nc(-c3ccc4ccccc4c3)n(-c3ccnc(N[C@H]4CCCN(C(=O)C5CC5)C4)n3)c2C1 (stereo partly specified) | Active

Biological target: T1, Mitogen-activated protein kinase 14
Assay: Inhibition of p38alpha (unknown origin) at 1 uM relative to control
Settings: not given

Row | SMILES | inhibition
19 | NC(=O)C1Cc2nc(-c3ccc(Cl)c(Cl)c3)n(-c3ccnc(N[C@@H]4CCCN(C(=O)C5CC5)C4)n3)c2C1 (stereo partly specified) | 80%
20 | CNC(=O)C1Cc2nc(-c3ccc4ccccc4c3)n(-c3ccnc(N[C@H]4CCCN(C(=O)C5CC5)C4)n3)c2C1 (stereo partly specified) | 80%

Biological target: T3, Mitogen-activated protein kinase 10 (Homo sapiens, UniProt P53779)
T3 sequence (P53779 whole entry): as the sequence (P49187 whole entry) above, with H27Q, S32Y, V33I, V34A counted along it
Assay: Inhibition of JNK3 (unknown origin) at 1 uM relative to control
Settings: not given

Row | SMILES | inhibition
21 | NC(=O)C1Cc2nc(-c3ccc(Cl)c(Cl)c3)n(-c3ccnc(N[C@@H]4CCCN(C(=O)C5CC5)C4)n3)c2C1 (stereo partly specified) | 100%
22 | CNC(=O)C1Cc2nc(-c3ccc4ccccc4c3)n(-c3ccnc(N[C@H]4CCCN(C(=O)C5CC5)C4)n3)c2C1 (stereo partly specified) | 100%

Biological target: T4, Mitogen-activated protein kinase 8 (Homo sapiens, UniProt P45983)
T4 sequence (P45983 whole entry): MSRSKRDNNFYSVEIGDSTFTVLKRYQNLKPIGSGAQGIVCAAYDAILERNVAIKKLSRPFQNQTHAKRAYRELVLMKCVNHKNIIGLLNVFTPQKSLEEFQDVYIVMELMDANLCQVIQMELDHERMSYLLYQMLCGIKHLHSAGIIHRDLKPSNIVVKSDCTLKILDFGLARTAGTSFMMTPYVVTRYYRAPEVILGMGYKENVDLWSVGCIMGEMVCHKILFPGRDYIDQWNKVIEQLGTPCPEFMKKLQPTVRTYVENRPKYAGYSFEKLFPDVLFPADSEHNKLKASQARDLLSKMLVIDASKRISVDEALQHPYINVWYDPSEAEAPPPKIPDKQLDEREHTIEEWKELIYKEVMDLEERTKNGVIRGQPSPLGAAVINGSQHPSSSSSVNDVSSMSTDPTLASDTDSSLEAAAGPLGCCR
Assay: Inhibition of JNK1 (unknown origin) at 1 uM relative to control
Settings: not given

Row | SMILES | inhibition
23 | NC(=O)C1Cc2nc(-c3ccc(Cl)c(Cl)c3)n(-c3ccnc(N[C@@H]4CCCN(C(=O)C5CC5)C4)n3)c2C1 (stereo partly specified) | 80%
24 | CNC(=O)C1Cc2nc(-c3ccc4ccccc4c3)n(-c3ccnc(N[C@H]4CCCN(C(=O)C5CC5)C4)n3)c2C1 (stereo partly specified) | 80%

Biological target: T2, Mitogen-activated protein kinase 9
Assay: Inhibition of JNK2 (unknown origin) incubated for 20 mins in presence of 33P-ATP
Settings: not given
Target sequence in this assay (P45984 whole entry): as the sequence (P45984 whole entry, looked up) above

Row | SMILES | IC50
25 | CCOC(=O)C1Cc2nc(-c3ccc4ccccc4c3)n(-c3ccnc(N[C@H]4CCCN(C(=O)C5CC5)C4)n3)c2C1 (stereo partly specified) | 13 nM
26 | NC(=O)C1Cc2nc(-c3ccc(Cl)c(Cl)c3)n(-c3ccnc(N[C@@H]4CCCN(C(=O)C5CC5)C4)n3)c2C1 (stereo partly specified) | 16.6 nM
27 | CNC(=O)C1Cc2nc(-c3ccc(Cl)c(Cl)c3)n(-c3ccnc(N[C@H]4CCCN(C(=O)C5CC5)C4)n3)c2C1 (stereo partly specified) | 15.4 nM
28 | CCOC(=O)C1Cc2nc(-c3ccc4ccccc4c3)n(-c3ccnc(N[C@@H]4CCCN(C(=O)C5CC5)C4)n3)c2C1 (stereo partly specified) | 11.9 nM
29 | CNC(=O)C1Cc2nc(-c3ccc4ccccc4c3)n(-c3ccnc(N[C@@H]4CCCN(C(=O)C5CC5)C4)n3)c2C1 (stereo partly specified) | 16.3 nM
30 | CNC(=O)C1Cc2nc(-c3ccc4ccccc4c3)n(-c3ccnc(N[C@H]4CCCN(C(=O)C5CC5)C4)n3)c2C1 (stereo partly specified) | 7.56 nM

Biological target: T4, Mitogen-activated protein kinase 8
Assay: Inhibition of JNK1 (unknown origin) incubated for 20 mins in presence of 33P-ATP
Settings: not given

Row | SMILES | IC50
31 | CCOC(=O)C1Cc2nc(-c3ccc4ccccc4c3)n(-c3ccnc(N[C@H]4CCCN(C(=O)C5CC5)C4)n3)c2C1 (stereo partly specified) | 32.5 nM
32 | NC(=O)C1Cc2nc(-c3ccc(Cl)c(Cl)c3)n(-c3ccnc(N[C@@H]4CCCN(C(=O)C5CC5)C4)n3)c2C1 (stereo partly specified) | 160 nM
33 | CNC(=O)C1Cc2nc(-c3ccc(Cl)c(Cl)c3)n(-c3ccnc(N[C@H]4CCCN(C(=O)C5CC5)C4)n3)c2C1 (stereo partly specified) | 86.5 nM
34 | CCOC(=O)C1Cc2nc(-c3ccc4ccccc4c3)n(-c3ccnc(N[C@@H]4CCCN(C(=O)C5CC5)C4)n3)c2C1 (stereo partly specified) | 56.1 nM
35 | CNC(=O)C1Cc2nc(-c3ccc4ccccc4c3)n(-c3ccnc(N[C@@H]4CCCN(C(=O)C5CC5)C4)n3)c2C1 (stereo partly specified) | 75.5 nM
36 | CNC(=O)C1Cc2nc(-c3ccc4ccccc4c3)n(-c3ccnc(N[C@H]4CCCN(C(=O)C5CC5)C4)n3)c2C1 (stereo partly specified) | 14.4 nM

Biological target: T3, Mitogen-activated protein kinase 10
Assay: Inhibition of JNK3 (unknown origin) using ATF2 as substrate incubated for 40 mins in presence of [gamma33P]ATP by scintillation counting analysis
Settings: not given

Row | SMILES | IC50
37 | CCOC(=O)C1Cc2nc(-c3ccc4ccccc4c3)n(-c3ccnc(N[C@H]4CCCN(C(=O)C5CC5)C4)n3)c2C1 (stereo partly specified) | 0.716 nM
38 | NC(=O)C1Cc2nc(-c3ccc(Cl)c(Cl)c3)n(-c3ccnc(N[C@@H]4CCCN(C(=O)C5CC5)C4)n3)c2C1 (stereo partly specified) | 0.73 nM
39 | CNC(=O)C1Cc2nc(-c3ccc(Cl)c(Cl)c3)n(-c3ccnc(N[C@H]4CCCN(C(=O)C5CC5)C4)n3)c2C1 (stereo partly specified) | 1.2 nM
40 | CCOC(=O)C1Cc2nc(-c3ccc4ccccc4c3)n(-c3ccnc(N[C@@H]4CCCN(C(=O)C5CC5)C4)n3)c2C1 (stereo partly specified) | 0.779 nM
41 | CNC(=O)C1Cc2nc(-c3ccc4ccccc4c3)n(-c3ccnc(N[C@@H]4CCCN(C(=O)C5CC5)C4)n3)c2C1 (stereo partly specified) | 1.08 nM
42 | CNC(=O)C1Cc2nc(-c3ccc4ccccc4c3)n(-c3ccnc(N[C@H]4CCCN(C(=O)C5CC5)C4)n3)c2C1 (stereo partly specified) | 0.564 nM

Test system: Cortical neurone
Assay: cells
Settings: Rattus norvegicus, 120 h, read-out: Activity

Row | SMILES | viability at 10 µM
43 | CCOC(=O)C1Cc2nc(-c3ccc4ccccc4c3)n(-c3ccnc(N[C@H]4CCCN(C(=O)C5CC5)C4)n3)c2C1 (stereo partly specified) | 55.7%

Test system: not listed separately
Assay: Selectivity ratio of IC50 for inhibition of JNK1 (unknown origin) to IC50 for inhibition of JNK3 (unknown origin)
Settings: not given

Row | SMILES | Ratio IC50
44 | CNC(=O)C1Cc2nc(-c3ccc(Cl)c(Cl)c3)n(-c3ccnc(N[C@H]4CCCN(C(=O)C5CC5)C4)n3)c2C1 (stereo partly specified) | 100
45 | CNC(=O)C1Cc2nc(-c3ccc4ccccc4c3)n(-c3ccnc(N[C@@H]4CCCN(C(=O)C5CC5)C4)n3)c2C1 (stereo partly specified) | 50
46 | CNC(=O)C1Cc2nc(-c3ccc4ccccc4c3)n(-c3ccnc(N[C@H]4CCCN(C(=O)C5CC5)C4)n3)c2C1 (stereo partly specified) | > 100
